Source: patent US20220402862A1 (Intellia Therapeutics, Inc., priority 2019, published 2022)

Tests used:
[1] = RNA encapsulation efficiency of LNPs (Ribogreen fluorescence assay); type: physicochemical; settings: LNP
Description: A fluorescence-based assay (Ribogreen®, ThermoFisher Scientific) is used to determine total RNA concentration and free RNA. Encapsulation efficiency is calculated as (Total RNA-Free RNA)/Total RNA. LNP samples are diluted appropriately with 1× TE buffer containing 0.2% Triton-X 100 to determine total RNA or 1× TE buffer to determine free RNA. Standard curves are prepared by utilizing the starting RNA solution used to make the compositions and diluted in 1× TE buffer +/− 0.2% Triton-X 100. Diluted RiboGreen® dye (according to the manufacturer's instructions) is then added to each of the standards and samples and allowed to incubate for approximately 10 minutes at room temperature, in the absence of light. A SpectraMax M5 Microplate Reader (Molecular Devices) is used to read the samples with excitation, auto cutoff and emission wavelengths set to 488 nm, 515 nm, and 525 nm respectively. Total RNA and free RNA are determined from the appropriate standard curves.
Encapsulation efficiency is calculated as (Total RNA-Free RNA)/Total RNA. The same procedure may be used for determining the encapsulation efficiency of a DNA-based cargo component. In a fluorescence-based assay, for single-strand DNA Oligreen Dye may be used, and for double-strand DNA, Picogreen Dye. Alternatively, the total RNA concentration can be determined by a reverse-phase ion-pairing (RP-IP) HPLC method. Triton X-100 is used to disrupt the LNPs, releasing the RNA. The RNA is then separated from the lipid components chromatographically by RP-IP HPLC and quantified against a standard curve using UV absorbance at 260 nm.

Transthyretin (TTR) = test: Serum TTR ELISA in mice after LNP dosing; type: in vivo, CD-1 female mice; settings: guide G282 experiments; for Serum TTR % TSS: mouse serum TTR relative to TSS control; for Serum TTR: mouse serum, ELISA
Description: CD-1 female mice ranging from 6-10 weeks of age were used in each study. Animals were weighed and grouped according to body weight for preparing dosing solutions based on group average weight. LNPs were dosed via the lateral tail vein in a volume of 0.2 mL per animal (approximately 10 mL per kilogram body weight). The animals were periodically observed for adverse effects for at least 24 hours post dose. For studies measuring in vivo editing in liver, CD-1 female mice were dosed at 0.1 mg/kg unless otherwise noted. Animals were euthanized at 6 or 7 days by ex sanguination via cardiac puncture under isoflurane anesthesia. Liver tissue was collected from each animal for DNA extraction and analysis. Blood was collected into serum separator tubes or into tubes containing buffered sodium citrate for plasma as described herein. Cohorts of mice were measured for editing by Next-Generation Sequencing (NGS).
Blood was collected and the serum was isolated as indicated. The total mouse TTR serum levels were determined using a Mouse Prealbumin (Transthyretin) ELISA Kit (Aviva Systems Biology, Cat. OKIA00111). Briefly, sera were serial diluted with kit sample diluent to a final dilution of 10,000-fold for 0.1 mg/kg dose and final dilutions of 10,000-fold and of 2,500-fold for 0.3 mg/kg. This diluted sample was then added to the ELISA plates and the assay was carried out according to the manufacturer's directions.

[2] = Dynamic light scattering of LNPs: Z-average diameter, number average diameter, PDI; type: physicochemical; settings: LNP
Description: Dynamic Light Scattering (“DLS”) is used to characterize the polydispersity index (“PDI”) and size of the LNPs of the present disclosure. DLS measures the scattering of light that results from subjecting a sample to a light source. PDI, as determined from DLS measurements, represents the distribution of particle size (around the mean particle size) in a population, with a perfectly uniform population having a PDI of zero.
LNP compositions are analyzed for average particle size, polydispersity index (PDI), total RNA content, encapsulation efficiency of RNA, and zeta potential. LNP compositions may be further characterized by lipid analysis, AF4-MALS, NTA, and/or cryo-EM. Average particle size and polydispersity are measured by dynamic light scattering (DLS) using a Malvern Zetasizer DLS instrument or Wyatt NanoStar. LNP samples were diluted with PBS buffer prior to being measured by DLS. Z-average diameter which is an intensity-based measurement of average particle size is reported along with number average diameter and PDI. A Malvern Zetasizer or Wyatt NanoStar instrument is also used to measure the zeta potential of the LNP. Samples are diluted 1:17 (50 μL into 800 μL) in 0.1× PBS, pH 7.4 prior to measurement.

[3] = sg:mRNA 1:1.3, N/P about 6, amine lipid/DSPC/cholesterol/PEG-2k-DMG 50/9/38/3, Table 2, Experiment 1
[4] = sg:mRNA 1:1.3, N/P about 6, 50/9/38/3, Table 2, Experiment 1
[5] = sg:mRNA 1:1, N/P about 6, amine lipid/DSPC/cholesterol/PEG-2k-DMG 50/9/38/3, Table 2, Experiments 2-20
[6] = sg:mRNA 1:1, N/P about 6, 50/9/38/3, Table 2, Experiments 2-20

Row | Structure (SMILES) | Encapsulation (%) [1, 3] [%] | Serum TTR % TSS (Transthyretin (TTR)) [%] | Serum TTR (Transthyretin (TTR)) [µg/mL] | Number mean (nm) [2, 4] [nm] | PDI [2, 4] | Z-avg (nm) [2, 4] [nm] | Encapsulation (%) [1, 5] [%] | Number mean (nm) [2, 6] [nm] | PDI [2, 6] | Z-avg (nm) [2, 6] [nm]
1 | CCCCC/C=C\C/C=C\CCCCCCCC(=O)OCC(COC(=O)CCC(OCCCCCCCC)OCCCCCCCC)COC(=O)OCCCN(C)CCN(C)C (stereo not drawn) [Compound 4, 13-(((4,4-bis(octyloxy)butanoyl)oxy)methyl)-2,5-dimethyl-10-oxo-9,11-dioxa-2,5-diazatetradecan-14-yl (9Z,12Z)-octadeca-9,12-dienoate] | 100 | 109 | 1347 | 44.92 | 0.129 | 72.11 |  |  |  | 
2 | CCCCC/C=C\C/C=C\CCCCCCCC(=O)OCC(COC(=O)CCC(OCCCCCCCC)OCCCCCCCC)COC(=O)OCCN1CCCC1 (stereo not drawn) [Compound 10, 3-((4,4-bis(octyloxy)butanoyl)oxy)-2-((((2-(pyrrolidin-1-yl)ethoxy)carbonyl)oxy)methyl)propyl (9Z,12Z)-octadeca-9,12-dienoate] |  | 96 | 871 |  |  |  | 90 | 39.12 | 0.086 | 57.21
3 | CCCCC/C=C\C/C=C\CCCCCCCC(=O)OCC(COC(=O)CCC(OCCCCCCCC)OCCCCCCCC)COC(=O)OCC1CCCN(CC)C1 (stereo not drawn) [Compound 5, 3-((4,4-bis(octyloxy)butanoyl)oxy)-2-(((((1-ethylpiperidin-3-yl)methoxy)carbonyl)oxy)methyl)propyl (9Z,12Z)-octadeca-9,12-dienoate] | 98 | 60 | 737 | 50.89 | 0.059 | 66.28 |  |  |  | 
4 | CCCCC/C=C\C/C=C\CCCCCCCC(=O)OCC(COC(=O)CCC(OCCCCCCCC)OCCCCCCCC)COC(=O)NCCCN(CC)CC (stereo not drawn) [Compound 7, 3-((4,4-bis(octyloxy)butanoyl)oxy)-2-((((3-(diethylamino)propyl)carbamoyl)oxy)methyl)propyl (9Z,12Z)-octadeca-9,12-dienoate] |  | 104 | 940 |  |  |  | 99 | 43.91 | 0.126 | 67.61
5 | CCCCC/C=C\C/C=C\CCCCCCCC(=O)OCC(COC(=O)CCC(OCCCCCCCC)OCCCCCCCC)COC(=O)OC1CCN(CC)CC1 (stereo not drawn) [Compound 17, 3-((4,4-bis(octyloxy)butanoyl)oxy)-2-(((((1-ethylpiperidin-4-yl)oxy)carbonyl)oxy)methyl)propyl (9Z,12Z)-octadeca-9,12-dienoate] |  | 70 | 727 |  |  |  | 98 | 56.58 | 0.037 | 70.97
6 | CCCCC/C=C\C/C=C\CCCCCCCC(=O)OCC(COC(=O)CCC(OCCCCCCCC)OCCCCCCCC)COC(=O)NCCCN(C)C (stereo not drawn) [Compound 6, 3-((4,4-bis(octyloxy)butanoyl)oxy)-2-((((3-(dimethylamino)propyl)carbamoyl)oxy)methyl)propyl (9Z,12Z)-octadeca-9,12-dienoate] | 100 | 90 | 1107 | 41.82 | 0.066 | 56.86 |  |  |  | 
7 | CCCCC/C=C\C/C=C\CCCCCCCC(=O)OCC(COC(=O)CCC(OCCCCCCCC)OCCCCCCCC)COC(=O)OCCCN(C(C)C)C(C)C (stereo not drawn) [Compound 21, 3-((4,4-bis(octyloxy)butanoyl)oxy)-2-((((3-(diisopropylamino)propoxy)carbonyl)oxy)methyl)propyl (9Z,12Z)-octadeca-9,12-dienoate] |  | 87 | 897 |  |  |  | 94 | 59.75 | 0.039 | 75.41
8 | CCCCC/C=C\C/C=C\CCCCCCCC(=O)OCC(COC(=O)CCC(OCCCCCCCC)OCCCCCCCC)COC(=O)NCCCN1CCCC1 (stereo not drawn) [Compound 8, 3-((4,4-bis(octyloxy)butanoyl)oxy)-2-((((3-(pyrrolidin-1-yl)propyl)carbamoyl)oxy)methyl)propyl (9Z,12Z)-octadeca-9,12-dienoate] |  | 106 | 962 |  |  |  | 100 | 37.17 | 0.093 | 53.88
9 | CCCCC/C=C\C/C=C\CCCCCCCC(=O)OCC(COC(=O)CCC(OCCCCCCCC)OCCCCCCCC)COC(=O)OCCCN1CCCCCC1 (stereo not drawn) [Compound 23, 3-(((3-(azepan-1-yl)propoxy)carbonyl)oxy)-2-(((4,4-bis(octyloxy)butanoyl)oxy)methyl)propyl (9Z,12Z)-octadeca-9,12-dienoate] |  | 83 | 716 |  |  |  | 95 | 56.62 | 0.068 | 74.78
10 | CCCCC/C=C\C/C=C\CCCCCCCC(=O)OCC(COC(=O)CCC(OCCCCCCCC)OCCCCCCCC)COC(=O)OCCN(CC)CC (stereo not drawn) [Compound 9, 3-((4,4-bis(octyloxy)butanoyl)oxy)-2-((((2-(diethylamino)ethoxy)carbonyl)oxy)methyl)propyl (9Z,12Z)-octadeca-9,12-dienoate] |  | 100 | 865 |  |  |  | 89 | 45.11 | 0.058 | 62.99
11 | CCCCC/C=C\C/C=C\CCCCCCCC(=O)OCC(COC(=O)CCC(OCCCCCCCC)OCCCCCCCC)COC(=O)OCCCCN1CCCC1 (stereo not drawn) [Compound 13, 3-((4,4-bis(octyloxy)butanoyl)oxy)-2-((((4-(pyrrolidin-1-yl)butoxy)carbonyl)oxy)methyl)propyl (9Z,12Z)-octadeca-9,12-dienoate] |  | 93 | 837 |  |  |  | 97 | 74.6 | 0.013 | 91.12
12 | CCCCC/C=C\C/C=C\CCCCCCCC(=O)OCC(COC(=O)CCC(OCCCCCCCC)OCCCCCCCC)COC(=O)OCCCCN(CC)CC (stereo not drawn) [Compound 11, 3-((4,4-bis(octyloxy)butanoyl)oxy)-2-((((4-(diethylamino)butoxy)carbonyl)oxy)methyl)propyl (9Z,12Z)-octadeca-9,12-dienoate] |  | 78 | 706 |  |  |  | 97 | 68.35 | 0.022 | 85.35
13 | CCCCC/C=C\C/C=C\CCCCCCCC(=O)OCC(COC(=O)CCC(OCCCCCCCC)OCCCCCCCC)COC(=O)OCCCN(C)C (stereo not drawn) [Compound 2, 3-((4,4-bis(octyloxy)butanoyl)oxy)-2-((((3-(dimethylamino)propoxy)carbonyl)oxy)methyl)propyl (9Z,12Z)-octadeca-9,12-dienoate] | 96 | 90 | 1114 | 59.17 | 0.046 | 75.64 |  |  |  | 
